Source: PubChem BioAssay AID504625 (Southern Research Specialized Biocontainment Screening …, 2011)

Test system: human PBMC, HIV-1 X4 replication, supernatant RT activity
Experiment: anti-HIV-1 activity in primary human blood cells – cell-based, human PBMC, set 3, dose response (AID 504625)

**Q.** `Cc1c2c(=O)n(-c3nc4ccccc4s3)nc-2cc(O)n1Cc1ccccc1` was tested. Which IC50 did it give?
**A.** 1510 nM
